The source of these data is PMC8285493 (Nature Communications, 2021).

The structures appear in SMILES notation.

Holding throughout (assay): biochemical
Common to all, as to set-up: PDE enzyme inhibition, 3H-cAMP / 3H-cGMP scintillation proximity assay
For orientation: SPA uses beads or plates that emit light when radiolabelled molecules are held near them.

One assay concerns the target T1, PDE2A (Homo sapiens, UniProt O00408).
T1 construct: full-length, Sf9 cell-free extract
The method, then: (§1) PDE activity assays were performed as previously described. Briefly, cell-free extracts were prepared from Sf9 insect cells recombinantly expressing full-length human PDEs (PDE2A, 3A, 3B, 4B, 7B, 8A, 9A, 10A, 11A). PDE5 was purified from human platelets by homogenization (Microfluidizer, 800 bar, 3 passages), centrifugation (75,000 × g, 60 min, 4 °C), and ion exchange chromatography of the supernatant on a Mono Q 10/10 column (linear NaCl gradient, eluted with 0.2–0.3 M NaCl in a buffer containing 20 mM Hepes pH 7.2 and 2 mM MgCl2). Fractions containing PDE5 activity were pooled and stored at −80 °C. PDE6 was purified from rod outer segments of bovine retinae by Dr. Körschen, Forschungszentrum Jülich, Germany[34]. Bovine PDE1 was purchased from Sigma-Aldrich (P9529, Taufkirchen, Germany). Enzyme inhibition studies were carried out using the commercially available 3H-cAMP and 3H-cGMP Scintillation Proximity Assay (SPA) systems (RPNQ0150, Perkin-Elmer, Rodgau, Germany).

For a further assay, the target named is T2, PDE7B (Homo sapiens, UniProt Q9NP56).
T2 construct: full-length, Sf9 cell-free extract
T2 sequence (Q9NP56 whole entry): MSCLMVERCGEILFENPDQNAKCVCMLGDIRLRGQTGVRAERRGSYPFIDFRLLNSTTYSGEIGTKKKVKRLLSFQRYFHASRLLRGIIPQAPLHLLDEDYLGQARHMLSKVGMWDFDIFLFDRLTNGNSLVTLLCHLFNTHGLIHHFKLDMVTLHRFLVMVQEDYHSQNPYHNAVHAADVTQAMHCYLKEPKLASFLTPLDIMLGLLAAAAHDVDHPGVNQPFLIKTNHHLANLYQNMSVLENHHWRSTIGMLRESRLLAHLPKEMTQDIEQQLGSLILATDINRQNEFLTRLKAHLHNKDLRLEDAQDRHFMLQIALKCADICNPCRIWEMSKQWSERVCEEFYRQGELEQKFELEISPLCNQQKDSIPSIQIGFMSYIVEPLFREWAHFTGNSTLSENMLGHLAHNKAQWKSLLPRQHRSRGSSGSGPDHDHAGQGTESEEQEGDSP
As to the method: as §1

In the next assay the target is T3, PDE9A (Homo sapiens, UniProt O76083).
T3 construct: full-length, Sf9 cell-free extract
T3 sequence (O76083 whole entry): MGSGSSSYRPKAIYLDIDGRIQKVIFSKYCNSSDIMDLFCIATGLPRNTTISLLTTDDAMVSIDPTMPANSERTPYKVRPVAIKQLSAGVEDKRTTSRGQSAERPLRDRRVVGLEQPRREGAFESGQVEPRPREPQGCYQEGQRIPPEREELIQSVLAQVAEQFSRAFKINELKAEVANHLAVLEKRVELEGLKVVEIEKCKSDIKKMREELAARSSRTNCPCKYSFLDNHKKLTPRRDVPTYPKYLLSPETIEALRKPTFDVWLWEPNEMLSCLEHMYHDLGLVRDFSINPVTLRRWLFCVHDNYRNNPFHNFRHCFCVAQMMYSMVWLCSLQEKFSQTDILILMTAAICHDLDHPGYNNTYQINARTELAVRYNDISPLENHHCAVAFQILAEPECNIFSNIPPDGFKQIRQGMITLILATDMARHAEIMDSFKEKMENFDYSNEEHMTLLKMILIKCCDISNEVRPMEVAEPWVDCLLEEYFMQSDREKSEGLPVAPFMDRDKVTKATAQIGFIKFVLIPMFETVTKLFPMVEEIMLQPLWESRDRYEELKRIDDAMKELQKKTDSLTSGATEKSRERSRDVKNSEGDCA
The method, then:
as §1

The target of another assay is T4, PDE5 (Homo sapiens, UniProt O76074).
T4 construct: gene PDE5A; native, purified from human platelets
The method, then: as §1

A further assay concerns the target T5, PDE8A (Homo sapiens, UniProt O60658).
T5 construct: full-length, Sf9 cell-free extract
As to the method: as §1

The target of the next assay is T6, PDE11A (Homo sapiens, UniProt Q9HCR9).
T6 construct: full-length, Sf9 cell-free extract
T6 sequence (Q9HCR9 whole entry): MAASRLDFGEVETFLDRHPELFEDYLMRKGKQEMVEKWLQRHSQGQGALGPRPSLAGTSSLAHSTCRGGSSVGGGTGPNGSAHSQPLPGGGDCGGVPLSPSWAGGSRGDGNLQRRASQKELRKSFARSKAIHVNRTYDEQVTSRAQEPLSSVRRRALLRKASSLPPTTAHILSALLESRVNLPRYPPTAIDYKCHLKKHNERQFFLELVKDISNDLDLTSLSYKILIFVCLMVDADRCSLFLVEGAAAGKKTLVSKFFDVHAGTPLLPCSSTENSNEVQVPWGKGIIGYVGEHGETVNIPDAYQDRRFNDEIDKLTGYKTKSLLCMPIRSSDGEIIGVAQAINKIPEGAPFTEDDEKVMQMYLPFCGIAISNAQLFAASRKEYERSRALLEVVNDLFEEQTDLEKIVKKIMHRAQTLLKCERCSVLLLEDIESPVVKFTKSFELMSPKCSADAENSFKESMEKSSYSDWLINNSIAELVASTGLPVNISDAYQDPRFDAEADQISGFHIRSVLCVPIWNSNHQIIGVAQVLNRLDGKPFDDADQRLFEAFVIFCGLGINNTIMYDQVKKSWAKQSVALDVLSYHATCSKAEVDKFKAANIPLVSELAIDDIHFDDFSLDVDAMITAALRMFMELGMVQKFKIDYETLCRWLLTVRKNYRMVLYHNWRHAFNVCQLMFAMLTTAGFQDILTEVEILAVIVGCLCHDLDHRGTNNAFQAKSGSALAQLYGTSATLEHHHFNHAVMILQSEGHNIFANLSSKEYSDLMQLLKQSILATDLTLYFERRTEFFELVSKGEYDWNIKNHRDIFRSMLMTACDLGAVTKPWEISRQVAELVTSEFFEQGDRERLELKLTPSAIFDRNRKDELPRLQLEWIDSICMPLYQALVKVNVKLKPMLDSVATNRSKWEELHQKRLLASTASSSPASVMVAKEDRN
As to the method: as §1

Another assay has as its target T7, PDE3A (Homo sapiens, UniProt Q14432).
T7 construct: full-length, Sf9 cell-free extract
The method, then: as §1

Another assay concerns the target T8, PDE3B (Homo sapiens, UniProt Q13370).
T8 construct: full-length human PDE3B, Sf9 cell-free extract
As to the method:
as §1

For the next assay, the target named is T9, PDE6 (Bos taurus, UniProt P11541+P23439).
T9 construct: gene PDE6A; native, purified from rod outer segments of bovine retinae
T9 sequence (P11541 1-859): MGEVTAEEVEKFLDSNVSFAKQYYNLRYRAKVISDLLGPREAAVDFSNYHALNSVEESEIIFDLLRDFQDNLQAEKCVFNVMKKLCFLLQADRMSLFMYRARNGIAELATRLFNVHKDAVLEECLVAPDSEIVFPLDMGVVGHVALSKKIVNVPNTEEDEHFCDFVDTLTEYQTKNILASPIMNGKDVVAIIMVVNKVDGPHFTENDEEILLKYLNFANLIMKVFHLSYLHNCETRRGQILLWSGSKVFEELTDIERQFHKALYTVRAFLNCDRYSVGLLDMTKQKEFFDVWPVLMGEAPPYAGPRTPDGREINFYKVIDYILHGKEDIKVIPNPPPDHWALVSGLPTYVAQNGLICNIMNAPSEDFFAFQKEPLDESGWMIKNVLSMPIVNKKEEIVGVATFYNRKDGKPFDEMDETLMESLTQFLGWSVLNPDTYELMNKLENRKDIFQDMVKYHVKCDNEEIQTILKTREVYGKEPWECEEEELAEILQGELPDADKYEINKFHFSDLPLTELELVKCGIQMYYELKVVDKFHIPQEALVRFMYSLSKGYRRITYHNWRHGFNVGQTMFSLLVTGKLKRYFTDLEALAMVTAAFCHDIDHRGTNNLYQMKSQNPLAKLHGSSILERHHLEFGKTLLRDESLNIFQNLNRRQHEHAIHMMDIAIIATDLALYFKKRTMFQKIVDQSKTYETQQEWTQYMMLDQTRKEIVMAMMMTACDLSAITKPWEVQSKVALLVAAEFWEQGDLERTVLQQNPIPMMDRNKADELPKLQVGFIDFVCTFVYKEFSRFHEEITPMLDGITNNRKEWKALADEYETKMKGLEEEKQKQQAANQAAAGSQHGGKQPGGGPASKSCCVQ
T9 sequence (P23439 1-853): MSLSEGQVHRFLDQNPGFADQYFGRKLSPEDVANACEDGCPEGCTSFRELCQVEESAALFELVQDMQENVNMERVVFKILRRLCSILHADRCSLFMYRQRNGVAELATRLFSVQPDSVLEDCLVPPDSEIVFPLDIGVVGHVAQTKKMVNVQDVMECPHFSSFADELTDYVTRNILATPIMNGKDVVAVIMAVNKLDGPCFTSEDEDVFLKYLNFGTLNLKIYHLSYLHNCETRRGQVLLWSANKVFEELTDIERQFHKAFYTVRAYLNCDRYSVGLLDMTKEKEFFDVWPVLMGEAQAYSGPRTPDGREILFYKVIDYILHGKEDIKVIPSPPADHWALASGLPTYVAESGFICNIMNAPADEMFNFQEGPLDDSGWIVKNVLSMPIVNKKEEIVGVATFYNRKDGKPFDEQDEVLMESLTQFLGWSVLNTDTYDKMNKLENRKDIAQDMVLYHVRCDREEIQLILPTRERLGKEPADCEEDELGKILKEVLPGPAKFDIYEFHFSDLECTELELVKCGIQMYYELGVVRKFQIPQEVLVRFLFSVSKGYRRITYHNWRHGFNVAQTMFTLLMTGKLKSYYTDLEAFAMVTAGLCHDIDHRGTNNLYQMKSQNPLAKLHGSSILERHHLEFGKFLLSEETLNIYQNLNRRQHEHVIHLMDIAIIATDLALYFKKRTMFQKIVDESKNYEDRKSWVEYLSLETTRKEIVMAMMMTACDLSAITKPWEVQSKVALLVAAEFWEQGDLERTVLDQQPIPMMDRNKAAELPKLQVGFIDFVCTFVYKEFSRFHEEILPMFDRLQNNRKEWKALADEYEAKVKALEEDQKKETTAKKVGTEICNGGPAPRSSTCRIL
As to the method:
as §1

Another assay has as its target T10, PDE10A (Homo sapiens, UniProt Q9Y233).
T10 construct: full-length, Sf9 cell-free extract
The method, then: as §1

T10 sequence (Q9Y233 whole entry): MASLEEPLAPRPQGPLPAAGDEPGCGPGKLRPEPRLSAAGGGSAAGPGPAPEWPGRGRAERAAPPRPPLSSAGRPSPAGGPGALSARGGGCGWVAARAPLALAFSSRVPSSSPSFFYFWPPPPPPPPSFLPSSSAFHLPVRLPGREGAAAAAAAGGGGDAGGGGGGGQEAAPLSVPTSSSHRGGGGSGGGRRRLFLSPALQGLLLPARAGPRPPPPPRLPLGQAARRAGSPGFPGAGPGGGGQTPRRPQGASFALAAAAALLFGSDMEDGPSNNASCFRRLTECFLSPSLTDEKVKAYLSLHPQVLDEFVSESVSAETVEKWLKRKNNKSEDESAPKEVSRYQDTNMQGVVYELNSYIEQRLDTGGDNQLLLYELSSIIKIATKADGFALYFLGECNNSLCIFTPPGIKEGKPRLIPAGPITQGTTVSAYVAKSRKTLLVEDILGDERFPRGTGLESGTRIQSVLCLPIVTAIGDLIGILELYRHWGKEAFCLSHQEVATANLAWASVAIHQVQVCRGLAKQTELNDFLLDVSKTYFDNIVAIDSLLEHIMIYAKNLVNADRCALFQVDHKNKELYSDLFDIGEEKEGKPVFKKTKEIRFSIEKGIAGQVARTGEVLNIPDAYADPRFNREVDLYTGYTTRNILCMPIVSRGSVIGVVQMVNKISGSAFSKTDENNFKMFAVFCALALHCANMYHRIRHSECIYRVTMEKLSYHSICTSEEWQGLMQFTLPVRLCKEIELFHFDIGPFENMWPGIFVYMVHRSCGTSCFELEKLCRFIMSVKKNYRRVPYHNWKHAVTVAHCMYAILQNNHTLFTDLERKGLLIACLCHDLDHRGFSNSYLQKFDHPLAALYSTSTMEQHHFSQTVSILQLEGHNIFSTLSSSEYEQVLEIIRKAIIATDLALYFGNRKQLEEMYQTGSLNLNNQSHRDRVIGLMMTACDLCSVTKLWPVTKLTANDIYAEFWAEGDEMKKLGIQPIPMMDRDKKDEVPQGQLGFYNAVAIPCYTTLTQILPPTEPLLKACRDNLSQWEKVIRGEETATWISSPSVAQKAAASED
T5 sequence (O60658 whole entry): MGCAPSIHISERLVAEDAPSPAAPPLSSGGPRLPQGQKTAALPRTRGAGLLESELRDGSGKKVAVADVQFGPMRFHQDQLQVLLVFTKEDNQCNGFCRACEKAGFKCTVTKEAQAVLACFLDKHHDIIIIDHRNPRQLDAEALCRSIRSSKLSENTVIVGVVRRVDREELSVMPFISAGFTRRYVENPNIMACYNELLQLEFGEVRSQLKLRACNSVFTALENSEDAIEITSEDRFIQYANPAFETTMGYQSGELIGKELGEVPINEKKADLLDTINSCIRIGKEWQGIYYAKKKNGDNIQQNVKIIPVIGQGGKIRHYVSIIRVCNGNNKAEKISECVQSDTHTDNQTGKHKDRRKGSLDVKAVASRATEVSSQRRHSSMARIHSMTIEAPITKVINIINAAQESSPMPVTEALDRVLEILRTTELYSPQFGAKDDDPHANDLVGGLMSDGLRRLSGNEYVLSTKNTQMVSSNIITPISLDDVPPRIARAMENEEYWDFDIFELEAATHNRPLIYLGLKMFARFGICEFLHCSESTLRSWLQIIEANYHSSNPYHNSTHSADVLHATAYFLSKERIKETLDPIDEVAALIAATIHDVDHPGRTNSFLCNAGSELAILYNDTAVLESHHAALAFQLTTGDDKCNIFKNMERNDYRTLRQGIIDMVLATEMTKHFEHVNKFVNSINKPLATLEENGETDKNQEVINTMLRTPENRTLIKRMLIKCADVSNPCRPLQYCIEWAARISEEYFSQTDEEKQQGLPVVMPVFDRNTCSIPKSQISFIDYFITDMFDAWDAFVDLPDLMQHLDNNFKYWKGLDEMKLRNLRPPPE
T1 sequence (O00408 whole entry): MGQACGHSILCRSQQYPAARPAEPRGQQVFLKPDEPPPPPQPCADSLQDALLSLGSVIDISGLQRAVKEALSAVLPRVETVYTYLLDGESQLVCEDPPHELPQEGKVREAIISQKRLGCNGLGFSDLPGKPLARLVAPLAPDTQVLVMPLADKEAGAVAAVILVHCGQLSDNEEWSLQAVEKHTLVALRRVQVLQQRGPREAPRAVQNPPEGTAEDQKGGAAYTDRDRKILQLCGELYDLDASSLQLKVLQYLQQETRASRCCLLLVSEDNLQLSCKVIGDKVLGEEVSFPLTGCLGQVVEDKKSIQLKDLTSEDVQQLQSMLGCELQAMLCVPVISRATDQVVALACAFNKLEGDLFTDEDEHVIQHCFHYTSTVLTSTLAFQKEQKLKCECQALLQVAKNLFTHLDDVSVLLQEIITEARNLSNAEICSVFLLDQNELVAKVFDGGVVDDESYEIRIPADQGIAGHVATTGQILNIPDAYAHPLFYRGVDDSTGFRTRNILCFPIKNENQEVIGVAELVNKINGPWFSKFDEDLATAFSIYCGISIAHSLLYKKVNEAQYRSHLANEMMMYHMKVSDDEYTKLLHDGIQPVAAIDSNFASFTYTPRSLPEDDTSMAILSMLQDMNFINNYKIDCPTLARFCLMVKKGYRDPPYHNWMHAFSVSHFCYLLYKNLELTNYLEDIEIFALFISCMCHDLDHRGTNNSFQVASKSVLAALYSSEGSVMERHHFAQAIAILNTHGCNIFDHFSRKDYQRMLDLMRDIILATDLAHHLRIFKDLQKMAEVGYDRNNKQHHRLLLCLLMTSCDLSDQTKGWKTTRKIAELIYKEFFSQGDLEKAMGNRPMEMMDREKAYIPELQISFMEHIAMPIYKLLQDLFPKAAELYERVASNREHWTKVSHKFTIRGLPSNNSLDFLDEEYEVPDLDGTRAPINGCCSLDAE

One may read the IC50 as the concentration needed to halve the response being measured. On to `COc1cc2c(cc1OC)-c1c/c(=N\c3c(C)cc(C)cc3C)n(C)c(=O)n1CC2` [trequinsin], for which the 50% inhibitory concentration (IC50) against PDE2A was 785 nM; against PDE7B it was more than 10000 nM; at PDE9A, more than 10000 nM; on PDE5, 870 nM; on PDE8A, 8000 nM; at PDE11A, 1000 nM. Also, the IC50 was determined as 0.023 nM against PDE3A, 0.05 nM at PDE3B, 1200 nM on PDE6 and 49.8 nM at PDE10A.
